Values quoted from earlier work as cited in patent US6670356B2, “Analogs of galanthamine and lycoramine as modulators of nicotinic receptors” (priority 1999, dated 2003).

Legend:
[1] = test system: nicotinic receptors of PC12 cells
[2] = test system: superior cervical ganglion; conditions: cat

| Compound | Mode of action at nicotinic receptors ([1]; PC12 cells) | Single channel activity after incubation with FK1 (competitive monoclonal antibody to physostigmine) ([1]; PC12 cells) | Whole-cell currents evoked ([1]; PC12 cells) | Channel activation ([1]; inside-out patches from PC 12 cells) | Anticholinesterase activity relative to neostigmine or physostigmine (cholinesterase; quoted from the cited authors' discussion) | Preservation of the ganglionic surface potential ([2]; direct recordings, treated ganglia) | Inhibition of hexamethonium (C6) induced ganglionic blockade ([2]; intra-arterially, 250 micrograms) | Twitch potentiating effects relative to neostigmine or physostigmine (gastrocnemius; nerve muscle preparation, quoted from the cited authors' discussion) | Twitch potentiation relative to neostigmine or physostigmine (gastrocnemius; quoted from the cited authors) | IC 50 for cholinesterase inhibition, times lower than for galanthamine (cholinesterase; rat brain, erythrocytes, or gastrocnemius homogenate) |
| --- | --- | --- | --- | --- | --- | --- | --- | --- | --- | --- |
| COc1ccc2c3c1O[C@H]1C[C@@H](O)C=C[C@@]31CCN(C)C2 [galanthamine] | noncompetitive agonists | neither physostigmine nor galanthamine could induce | do not evoke sizable whole-cell currents | cause some channel activation | 1/100 | preservation of the surface potential is shown | substantially inhibited | 1/10 | 1/10 | – |
| COc1ccc2c3c1O[C@H]1[C@@H](O)C=C[C@H]4[C@@H](C2)N(C)CC[C@@]341 [codeine] | – | – | do not evoke sizable whole-cell currents | – | – | – | – | – | – | – |
| CN(C)C(=O)Oc1cccc([N+](C)(C)C)c1 [neostigmine] | – | – | – | – | – | – | – | – | – | ~200 times lower |
